From patent US20240118281A1, “ANTICANCER COMPOUNDS AND USES THEREOF” (University of Florida Research Foundation, Incorporated, priority 2021, published 2024)

What was measured:
DR5 = assay: Disulfide bond-mediated oligomerization and levels, non-reducing immunoblot; assay type: cell-based
Excerpt: The BT20, BT474, BT549, MCF7, MDA-MB-231, MDA-MB-436, MDA-MB-468, HCC1143, HCC1500, HCC1569, HCC1937, HCC1954, Hs578t, and T47D cells lines were purchased from American Type Culture Collection (ATCC) (Manassas, VA). The HCI-001 cell line was derived from an ER-/PR-/HER2- patient-derived xenograft originally isolated from a patient as described previously (DeRose Y S, et al. Nat Med 2011; 17: 1514-1520). The HCI-001/LVM2 model was derived from the HCI-001 cell line by performing two rounds of selection for liver metastasis, as described previously (Wang M, et al. Cell Death Discovery 2019; 5: 153). Cell lines were grown in Dulbecco's Modified Eagle's Medium (GE Healthcare Life Sciences, Logan, UT) containing 10% fetal bovine serum (10% FBS—DMEM) in a humidified incubator with 5% CO2 at 37° C. Cell lysates were prepared as described previously (Law B K, et al. Mol Cell Biol. 2002; 22: 8184-8198). Immunoblot analysis was performed utilizing the following antibodies purchased from Cell Signaling Technology (Beverly, MA) [Akt, #4691; P-Akt[T308], #13038; ATF4, #11815; CHOP, #2895; Cleaved Caspase 8, #9496; DR4, #42533; DR5, #8074; EGFR, #4267; GRP78, #3177; HER3, #4754; PARP, #9532; PDIA1, #3501; XBP1s, #12782], from Santa Cruz Biotechnology (Santa Cruz, CA) [Actin, sc-47778; AGR2/3, sc-376653; AGR3, sc-390940; ERO1-a, sc-100805; and ERp44, sc-393687], or from Rockland Immunochemicals, Inc. (Limerick, PA), Streptavidin-Alkaline Phosphatase conjugated (SA-AP), S000-05.
(§1) To assess protein disulfide bond-mediated oligomerization, cells were treated with DDAs for 24 h in 10% FBS-DMEM. Cells were subsequently scraped directly into the media and pelleted by centrifugation. Cells were extracted directly into boiling 2×-SDS-Sample Buffer containing 100 mM NEM and boiled for 10 min. Samples were sonicated, followed by centrifugation for 20 min at room temperature. Samples were subsequently analyzed by SDS-PAGE and immunoblot.

ERp44 = molecular target: T1, ERp44 (Homo sapiens, UniProt Q9BS26); assay: ERp44 disulfide bonding with client proteins, non-reducing immunoblot; assay type: cell-based; design: endogenous in cells; host or cells: MDA-MB-468; details: MDA-MB-468 cells
T1 sequence (Q9BS26 30-406): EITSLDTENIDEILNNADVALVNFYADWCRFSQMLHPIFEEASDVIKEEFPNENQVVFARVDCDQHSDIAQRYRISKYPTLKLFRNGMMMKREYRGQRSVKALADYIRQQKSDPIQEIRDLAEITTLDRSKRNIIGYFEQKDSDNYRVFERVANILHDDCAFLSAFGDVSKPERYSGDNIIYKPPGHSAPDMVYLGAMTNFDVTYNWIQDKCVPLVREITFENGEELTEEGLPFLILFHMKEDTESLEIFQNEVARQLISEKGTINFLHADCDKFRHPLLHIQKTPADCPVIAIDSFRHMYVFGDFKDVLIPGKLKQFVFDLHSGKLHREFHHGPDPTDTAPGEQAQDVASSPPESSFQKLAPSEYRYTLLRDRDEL
Procedure: as §1

PDIA1 [1] = molecular target: T2, PDIA1 (Homo sapiens, UniProt P07237); assay: PDIA1 disulfide bonding with client proteins, non-reducing immunoblot; assay type: cell-based; design: endogenous in cells; host or cells: MDA-MB-468; details: MDA-MB-468 cells, 5 μM, 24 h, FIG. 3E
Procedure: as §1

PDIA1 [2] = molecular target: T2, PDIA1; assay: In vitro binding assay with recombinant purified PDIA1; details: pre-incubation with a molar excess, FIG. 3D
Procedure: Purified His6-AGR2 or His6-AGR2 C81S, as prepared above, or His6-AGR2 (PRO-580) or His6-AGR3 (PRO-242) obtained from ProSpec (New Brunswick NJ) were incubated with or without varying concentrations of the unlabeled DDA competitors, tcyDTDO or dMtcyDTDO, and 30 μM Biotin-GlyPyrDTDO or Biotin-PyrDTDO in buffer (20 mM HEPES (pH 7.4), 1 mM EDTA, 1 mM EGTA, 5% Glycerol, 1 nM Microcystin, 1 mM Na3VO4, and 40 mM Na2H2P2O7) containing 1% Triton-X 100 for 30 min at 37° C. […] Therefore, the two probes were used interchangeably. Reactions were stopped by boiling the samples in 2×-SDS-Sample Buffer containing 100 mM NEM for 10 min. Biotin-DDA labeling of protein was verified by blotting with Streptavidin-Alkaline Phosphatase (Rockland Immunochemicals, Inc., Limerick, PA). ERp44 (PRO-547) and PDIA1 (ENZ-262) were obtained from ProSpec and used in experiments examining the binding of these proteins to Biotin-PyrDTDO.

AGR2 = molecular target: T3, AGR2 (Homo sapiens, UniProt O95994); assay: AGR2 dimer formation in stable cell lines, non-reducing immunoblot; assay type: cell-based; design: expressed in transfected cells; details: MDA-MB-468 stable cell lines, 5 μM, 24 h, FIG. 2F
T3 sequence (O95994 21-175): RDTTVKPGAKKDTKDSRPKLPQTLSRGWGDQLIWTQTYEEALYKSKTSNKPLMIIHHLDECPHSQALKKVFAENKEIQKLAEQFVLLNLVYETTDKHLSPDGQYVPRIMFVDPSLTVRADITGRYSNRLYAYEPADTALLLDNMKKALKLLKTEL
Procedure: as §1

MDA-MB-468 cells = assay: 3H-Leucine protein synthesis assay; assay type: cell-based; details: 24 h, FIG. 9A
Procedure: Protein synthesis assays utilizing ^3H-Leucine purchased from Perkin Elmer (Waltham, MA) were carried out as detailed previously (Law B K, et al. J Biol Chem 2000; 275: 10796-10801; Law B K, et al. J Biol Chem 2000; 275: 38261-38267).

[3] = MDA-MB-468 cells, 24 h, compared with tcyDTDO, FIG. 1E left

T2 sequence (P07237 18-508): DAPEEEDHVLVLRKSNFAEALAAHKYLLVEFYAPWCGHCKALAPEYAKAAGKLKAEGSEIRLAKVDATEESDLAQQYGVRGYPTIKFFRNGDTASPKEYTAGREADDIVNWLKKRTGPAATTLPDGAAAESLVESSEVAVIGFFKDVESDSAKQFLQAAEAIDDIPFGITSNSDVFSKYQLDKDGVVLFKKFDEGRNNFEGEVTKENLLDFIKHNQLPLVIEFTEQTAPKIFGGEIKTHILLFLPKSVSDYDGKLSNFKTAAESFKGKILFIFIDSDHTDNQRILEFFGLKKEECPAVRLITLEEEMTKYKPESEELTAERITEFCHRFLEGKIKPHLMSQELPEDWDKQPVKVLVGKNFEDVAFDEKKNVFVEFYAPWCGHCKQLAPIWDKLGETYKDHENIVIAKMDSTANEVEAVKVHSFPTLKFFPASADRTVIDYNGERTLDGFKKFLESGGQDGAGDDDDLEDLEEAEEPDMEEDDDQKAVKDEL

Structure (SMILES): CO[C@H]1C[C@@H]2CS(=O)(=O)SC[C@H]2C[C@@H]1OC [dMtcyDTDO, dimethoxy-tcyDTDO]
- Levels and oligomerization of DR5, densitometry (DR5; 0, 1.25, 2.5, 5 uM, FIG. 1F): increases the levels of both oligomeric and monomeric forms of DR5
- Concentration at which oligomerization of DR5 was observed (DR5; MDA-MB-468 cells, 24 h, FIG. 1E right): 1.25 µM
- DR4/5 oligomerization at the same concentration (DR5) (DR5; [3]): more DR4/5 oligomerization
- DR5 levels at the same concentration (DR5; [3]): higher DR5 levels
- Disulfide bonding of ERp44 with client proteins (ERp44; 5 μM, 24 h, FIG. 3E): reduces disulfide bonding of ERp44 and PDIA1 with multiple proteins
- Monomeric levels of ERp44 (ERp44; 5 μM, 24 h, FIG. 3E): minimal effect on monomeric levels
- ERp44 binding to client proteins, quantitation across four experiments (ERp44; FIG. 4D): decreased ERAP1 levels and ERp44 binding to client proteins in a statistically significant manner
- Disulfide bonding of PDIA1 with client proteins (PDIA1 [1]): reduces disulfide bonding of ERp44 and PDIA1 with multiple proteins
- Monomeric levels of PDIA1 (PDIA1 [1]): minimal effect on monomeric levels
- Block of Biotin-PyrDTDO biotinylation of PDIA1 (PDIA1 [2]): biotinylation was blocked
- AGR2 dimer formation in cells with enforced AGR2 expression (AGR2): blocked dimer formation by wild type AGR2
- Potency in protein synthesis assay relative to tcyDTDO (MDA-MB-468 cells): two-fold greater potency than tcyDTDO
